Measurements published in ChEMBL document CHEMBL1221359, “The discovery of a series of N-substituted 3-(4-piperidinyl)-1,3-benzoxazolinones and oxindoles as highly brain penetrant, selective muscarinic M1 agonists” (Bioorg Med Chem Lett, 2010).
pEC50: −log10 of the molar value. The source made the active and inactive calls. The calls are words filed in the database; no cut-off is given here.

Legend:
[1] = molecular target: T1, Muscarinic acetylcholine receptor M1 (Homo sapiens, UniProt P11229); assay: Agonist activity at human muscarinic M1 receptor expressed in CHO cells assessed as effect on calcium mobilization by FLIPR assay; type: functional, cell-based
T1 sequence (P11229 whole entry): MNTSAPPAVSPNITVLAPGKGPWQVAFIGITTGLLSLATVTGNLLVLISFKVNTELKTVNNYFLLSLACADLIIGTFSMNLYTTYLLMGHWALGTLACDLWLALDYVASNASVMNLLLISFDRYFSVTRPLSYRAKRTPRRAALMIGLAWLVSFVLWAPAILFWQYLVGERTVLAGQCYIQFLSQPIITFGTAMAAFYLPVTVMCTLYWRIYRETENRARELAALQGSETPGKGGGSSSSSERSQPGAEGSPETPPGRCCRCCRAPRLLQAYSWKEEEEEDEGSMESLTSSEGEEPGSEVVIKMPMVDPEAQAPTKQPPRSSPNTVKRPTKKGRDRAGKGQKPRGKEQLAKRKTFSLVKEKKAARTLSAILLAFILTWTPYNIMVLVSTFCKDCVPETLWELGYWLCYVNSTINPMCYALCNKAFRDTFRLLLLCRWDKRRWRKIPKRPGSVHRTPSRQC

[2] = molecular target: T2, Muscarinic acetylcholine receptor M2 (Homo sapiens, UniProt P08172); assay: Agonist activity at human muscarinic M2 receptor expressed in CHO cells co-expressing Gqi5 chimeric G-protein assessed as effect on calcium mobilization by FLIPR assay; type: functional, cell-based
T2 sequence (P08172 whole entry): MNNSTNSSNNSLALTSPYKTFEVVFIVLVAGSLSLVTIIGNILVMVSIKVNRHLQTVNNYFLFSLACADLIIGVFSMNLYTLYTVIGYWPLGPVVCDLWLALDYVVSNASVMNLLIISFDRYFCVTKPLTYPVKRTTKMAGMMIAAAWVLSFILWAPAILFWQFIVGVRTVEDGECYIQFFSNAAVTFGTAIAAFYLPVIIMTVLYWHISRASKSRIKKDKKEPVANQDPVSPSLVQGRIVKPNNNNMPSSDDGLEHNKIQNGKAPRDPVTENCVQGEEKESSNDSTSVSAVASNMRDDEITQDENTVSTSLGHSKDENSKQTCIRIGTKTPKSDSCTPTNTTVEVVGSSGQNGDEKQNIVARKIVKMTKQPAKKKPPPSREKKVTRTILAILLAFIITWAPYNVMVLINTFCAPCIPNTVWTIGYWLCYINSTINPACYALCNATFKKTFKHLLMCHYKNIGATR

[3] = molecular target: Muscarinic acetylcholine receptor M3 (Homo sapiens, UniProt P20309); assay: Agonist activity at human muscarinic M3 receptor expressed in CHO cells assessed as effect on calcium mobilization by FLIPR assay; type: functional, cell-based
[4] = molecular target: T3, Muscarinic acetylcholine receptor M4 (Homo sapiens, UniProt P08173); assay: Agonist activity at human muscarinic M4 receptor expressed in CHO cells co-expressing Gqi5 chimeric G-protein assessed as effect on calcium mobilization by FLIPR assay; type: functional, cell-based
T3 sequence (P08173 whole entry): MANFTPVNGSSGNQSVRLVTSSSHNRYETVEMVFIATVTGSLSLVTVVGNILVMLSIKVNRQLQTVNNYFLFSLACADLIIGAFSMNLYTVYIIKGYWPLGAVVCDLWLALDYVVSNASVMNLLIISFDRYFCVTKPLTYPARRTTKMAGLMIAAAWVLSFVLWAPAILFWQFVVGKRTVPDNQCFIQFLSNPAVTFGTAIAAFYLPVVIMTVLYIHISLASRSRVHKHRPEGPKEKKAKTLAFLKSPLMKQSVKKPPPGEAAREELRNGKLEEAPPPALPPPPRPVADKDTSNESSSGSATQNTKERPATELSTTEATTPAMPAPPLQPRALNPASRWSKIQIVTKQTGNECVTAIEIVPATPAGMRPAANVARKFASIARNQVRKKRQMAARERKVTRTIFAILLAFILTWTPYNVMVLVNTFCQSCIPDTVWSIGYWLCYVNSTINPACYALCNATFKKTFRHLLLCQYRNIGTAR

[5] = molecular target: T4, Muscarinic acetylcholine receptor M5 (Homo sapiens, UniProt P08912); assay: Agonist activity at human muscarinic M5 receptor expressed in CHO cells assessed as effect on calcium mobilization by FLIPR assay; type: functional, cell-based
T4 sequence (P08912 whole entry): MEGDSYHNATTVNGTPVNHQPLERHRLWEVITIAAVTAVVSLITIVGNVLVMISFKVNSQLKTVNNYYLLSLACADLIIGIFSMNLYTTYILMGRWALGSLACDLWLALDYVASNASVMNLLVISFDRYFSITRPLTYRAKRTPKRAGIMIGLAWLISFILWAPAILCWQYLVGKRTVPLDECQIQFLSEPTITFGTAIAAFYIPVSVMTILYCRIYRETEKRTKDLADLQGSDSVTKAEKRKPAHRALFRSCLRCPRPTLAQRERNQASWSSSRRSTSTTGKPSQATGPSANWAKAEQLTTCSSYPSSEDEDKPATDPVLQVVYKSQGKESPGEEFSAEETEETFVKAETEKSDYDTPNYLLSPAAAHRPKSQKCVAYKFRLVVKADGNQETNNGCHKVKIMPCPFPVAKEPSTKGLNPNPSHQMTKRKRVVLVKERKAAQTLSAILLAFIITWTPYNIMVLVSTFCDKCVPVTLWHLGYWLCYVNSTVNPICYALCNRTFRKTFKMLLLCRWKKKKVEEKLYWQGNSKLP

[6] = Clearance in rat blood at 3 mg/kg, po; type: ADME, organism-based; design: dose 3 mg/kg, route oral
[7] = Ratio of drug level in brain to blood in rat at 1 mg/kg, iv; type: ADME, organism-based; design: dose 1 mg/kg, route intravenous
Brain = assay: Drug level in rat brain assessed as tissue binding; type: ADME, tissue-based
[8] = Drug level in rat whole blood assessed as tissue binding; type: ADME, tissue-based
[9] = Ratio of drug level in brain to blood in rat at 3 mg/kg, po; type: ADME, organism-based; design: dose 3 mg/kg, route oral
[10] = Inhibition of sigma receptor at 10 uM
Rattus norvegicus [11] = assay: Cognitive enhancing effect in rat assessed as reversal of temporal-induced memory deficit at 1 mg/kg by novel object recognition assay; type: functional, organism-based; design: dose 1 mg/kg
Rattus norvegicus [12] = organism: Rattus norvegicus; assay: Cognitive enhancing effect in rat assessed as reversal of temporal-induced memory deficit by novel object recognition assay; type: functional, organism-based

Sequence of Muscarinic acetylcholine receptor M3 (P20309 whole entry): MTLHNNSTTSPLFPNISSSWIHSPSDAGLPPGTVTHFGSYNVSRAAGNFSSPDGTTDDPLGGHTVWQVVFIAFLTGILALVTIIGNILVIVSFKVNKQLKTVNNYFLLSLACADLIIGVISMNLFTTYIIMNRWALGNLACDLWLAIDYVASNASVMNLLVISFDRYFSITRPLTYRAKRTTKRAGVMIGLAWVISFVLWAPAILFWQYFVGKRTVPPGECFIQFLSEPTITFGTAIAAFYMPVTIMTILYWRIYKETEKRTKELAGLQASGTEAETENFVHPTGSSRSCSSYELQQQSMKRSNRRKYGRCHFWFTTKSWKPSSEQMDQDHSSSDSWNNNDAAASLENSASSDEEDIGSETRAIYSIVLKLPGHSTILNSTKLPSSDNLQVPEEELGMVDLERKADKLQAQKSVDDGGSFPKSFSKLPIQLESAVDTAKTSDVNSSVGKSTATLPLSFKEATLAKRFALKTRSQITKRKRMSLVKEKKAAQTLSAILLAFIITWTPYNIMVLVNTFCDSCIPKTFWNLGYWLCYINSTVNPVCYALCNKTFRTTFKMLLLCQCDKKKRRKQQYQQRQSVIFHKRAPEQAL

Row | pEC50 [1] | pEC50 [2] | pEC50 [3] | pEC50 [4] | pEC50 [5] | CL/F [6] [mL/min/kg] | Drug uptake (Brain) [%] | Drug uptake [8] [%] | Kp [9] | inhibition [10] [%] | SMILES | Kp [7] | Activity (Rattus norvegicus [11]) | Activity (Rattus norvegicus [12])
1 | 8.10 | 5.90 | 5.70 | 6.30 | 6.40 | – | – | – | – | – | CO[C@H]1CC[C@](C)(N2CCC(n3c(=O)oc4ccc(C)cc43)CC2)CC1 | – | – | –
2 | 6.70 | < 4.80 | 6.40 | 5.80 | 5.30 | – | – | – | – | – | CCO[C@H]1CC[C@](C)(N2CCC(n3c(=O)oc4ccc(S(=O)(=O)CC)cc43)CC2)CC1 | – | – | –
3 | 8.60 | 6.20 | 6.20 | 6.70 | 6.80 | – | – | – | – | – | COCCO[C@H]1CC[C@](C)(N2CCC(n3c(=O)oc4ccc(C)cc43)CC2)CC1 | – | – | –
4 | 7.90 | 5.60 | 5.90 | 5.80 | 5.90 | – | – | – | – | – | CCO[C@H]1CC[C@](C)(N2CCC(n3c(=O)oc4ccc(S(C)(=O)=O)cc43)CC2)CC1 | – | – | –
5 | 8.60 | 6.40 | 5.80 | 6.80 | 6.80 | – | – | – | – | – | CCO[C@H]1CC[C@](C)(N2CCC(n3c(=O)oc4ccc(OC)cc43)CC2)CC1 | – | – | –
6 | 9.00 | 6.30 | 6.10 | 7.00 | 7.30 | – | – | – | – | – | CCO[C@H]1CC[C@](C)(N2CCC(n3c(=O)oc4cc(F)c(C)cc43)CC2)CC1 | – | – | –
7 | 8.50 | 5.60 | 5.60 | 6.10 | 6.40 | – | – | – | – | – | CCO[C@H]1CC[C@](C)(N2CCC(n3c(=O)oc4ccc(C#N)cc43)CC2)CC1 | – | – | –
8 | 7.60 | < 4.80 | < 4.80 | 6.90 | 6.00 | – | – | – | – | – | CCO[C@H]1CC[C@](C)(N2CCC(n3c(=O)oc4ccccc43)CC2)CC1 | – | – | –
9 | 8.90 | 6.10 | 5.70 | 6.70 | 6.80 | – | – | – | – | – | CCO[C@H]1CC[C@](C)(N2CCC(n3c(=O)oc4c(F)cc(C)cc43)CC2)CC1 | – | – | –

The remaining lines, values behind:

Row | SMILES | pEC50 [1] | pEC50 [2] | pEC50 [3] | pEC50 [4] | pEC50 [5] | CL/F [6] [mL/min/kg] | Drug uptake (Brain) [%] | Drug uptake [8] [%] | Kp [9] | inhibition [10] [%] | Kp [7] | Activity (Rattus norvegicus [11]) | Activity (Rattus norvegicus [12])
10 | Cc1cc2c(cc1F)[nH]c(=O)n2C1CCN(C2CCOCC2)CC1 | 8.30 | – | 5.60 | 6.60 | – | – | – | – | – | – | – | – | –
11 | CCO[C@H]1CC[C@](C)(N2CCC(N3C(=O)Cc4ccc(C)cc43)CC2)CC1 | 9.40 | 7.00 | 6.90 | 7.50 | 7.70 | – | – | – | – | – | – | – | –
12 | CO[C@H]1CC[C@](C)(N2CCC(N3C(=O)Cc4ccc(C)cc43)CC2)CC1 | 8.50 | 6.20 | 6.50 | 6.80 | 6.90 | – | – | – | – | – | – | – | –
13 | CCCO[C@H]1CC[C@](C)(N2CCC(n3c(=O)[nH]c4cc(F)c(C)cc43)CC2)CC1 | 9.40 | 7.70 | 7.10 | 7.90 | 7.90 | – | – | – | – | – | – | – | –
14 | CCCO[C@H]1CC[C@](C)(N2CCC(N3C(=O)Cc4ccc(C)cc43)CC2)CC1 | 9.30 | 7.20 | 7.20 | 7.40 | 7.70 | 85 | 94 | 80 | – | – | 5.7 | – | –
15 | COCCO[C@H]1CC[C@](C)(N2CCC(n3c(=O)oc4ccc(C#N)cc43)CC2)CC1 | 8.00 | 5.60 | 5.40 | 6.10 | 6.00 | 23 | 61 | 42 | 1.7 | 75 | – | Active | Dose-dependent effect
16 | CCCO[C@H]1CC[C@](C)(N2CCC(n3c(=O)oc4ccc(S(C)(=O)=O)cc43)CC2)CC1 | 8.60 | 6.10 | 5.50 | 6.30 | 6.50 | 11 | 74 | 60 | 0.8 | – | – | – | –
